Reference: publication PMC4910235, “Selenophene and thiophene-core estrogen receptor ligands that inhibit motility and development of parasitic stages of Haemonchus contortus” (Parasites & Vectors, 2016)
Read-outs that look alike come from different tables or passages of the source.

What was measured:
[1] = tested on: development of xL3s to L4s of H. contortus; test: L4 development assay (xL3 to L4); format: cell-based; conditions: Haemonchus contortus, 168 h, read-out: L4 development (IC50s in μM)
Experimental: The selenophene and thiophene-core ligands (n = 74) (Additional file 1) were screened at a concentration of 20 μM on exsheathed third-stage larvae (xL3s) of H. contortus in 96-well microculture plates (cat. no. 3635; Corning 3650, Life Sciences, Corning, USA) using relevant control compounds (i.e. moxidectin and monepantel), as described previously. In brief, compounds were dissolved to a stock concentration of 10 mM in either dimethyl sulfoxide (DMSO) or methanol (Sigma-Adrich Scientific, St. Louis, USA). These ligands were then individually diluted to the final concentration of 20 μM using Luria Bertani medium (LB) supplemented with 100 IU/ml of penicillin, 100 μg/ml of streptomycin and 2.5 μg/ml of amphotericin (LB*). Compounds were dispensed (in triplicate) into the wells of a 96-well microculture plate using a multichannel pipette. In addition, the negative controls (LB*, LB* + 0.5 % solvent; six wells each), and positive controls (20 μM of monepantel; Zolvix, Novartis Animal Health, Basel, Switzerland and 20 μM of moxidectin; Cydectin, Virbac, Carros, France; triplicate wells) and xL3s (~300/well) were dispensed into wells of the plate using an automated multichannel pipette (Viaflo Assist/II, Integra Biosciences, Zizers, Switzerland). Following a 72 h incubation at 38 °C and 10 % CO2, a video recording (5 s) was taken of each well of the 96-well microculture plate (containing xL3s) using a greyscale camera (Rolera Bolt CMOS, Qimaging Scientific, Surrey, Canada) and a motorised X-Y axis stage (BioPoint 2, Ludl Electronics Products, Hawthorne, USA). Individual videos were processed to calculate a motility index (MI) using an algorithm described previously. MIs were normalised to the negative and positive controls (to remove plate-to-plate variation) using the program Prism (v.6 GraphPad Software, USA). Z’-scores were calculated to validate the performance of the screening assay; reliable assays achieve Z’-scores of between 0.5 and 1 [28]. A compound was recorded as having an activity if it reduced xL3 motility by ≥ 70 % following incubation for 72 h. […] Compounds that reduced the motility of xL3s were also tested for their ability to inhibit the motility of L4s (same protocol as for xL3s) and/or to affect the development of xL3s to L4s. Following the measurement of L4 motility, larvae were re-incubated for 4 more days and fixed with 1 % iodine (50 μl). Then, L4 development was assessed based on the presence of a well-developed mouth/pharynx using a light microscope and expressed as a percentage of the total number of larvae examined (n = 30).
All assays (to assess xL3 motility, L4 development and L4 motility) were performed in triplicate, three times, on separate days.

[2] = tested on: xL3 stage of H. contortus; test: Scanning electron microscopy of treated xL3s; format: cell-based, Haemonchus contortus; conditions: 100 μM, 24 h
Experimental: SEM was used to assess whether compounds that reduced motility by ≥ 70 % caused structural damage to the larval stages. The xL3s and L4s were cultivated as described previously. Compounds were diluted to a final concentration of 100 μM in LB*, and 50 μl were transferred to wells of a 96-well microculture plate; six wells were used for each treatment and for the negative control which contained LB* and 1 % methanol (AR1115-P2.5 L, RCI; Labscan Limited). The xL3s and L4s were resuspended in LB* at a density of ~6,000 per ml, and 50 μl were transferred into individual wells. Compounds were incubated with the larvae for 24 h at 38 °C and 10 % CO2. Following incubation, for each treatment, the larvae from each of the six wells were pooled into 1.5 ml Eppendorf tubes, washed 3 times in 0.9 % saline at 9,000 g and resuspended in 1 ml of phosphate-buffered saline (PBS). Subsequently, the larvae were fixed in 2.5 % glutaraldehyde in PBS for 2 h at room temperature, rinsed three times in PBS for 15 min, and then post-fixed in 1 % osmium tetroxide for 2 h at room temperature. Fixed larvae were rinsed again 3 times in PBS for 15 min. Then, aliquots of concentrated larvae (200 μl) were incubated on polyethyleneimine (PEI)-coated glass coverslips (pre-prepared by smearing 22 mm square glass coverslips with a 0.1 % solution of PEI and dried by heat under a cool flame). Following this incubation, the excess supernatant was removed, and the coverslips with adhered nematodes were dehydrated in increasing concentrations of ethanol (10, 30, 50, 70, 90 and 100 %) in water for 30 min. The coverslips were dried in a critical point dryer (EM CPD030, Leica, Wetzlar, Germany) and mounted on to aluminium stubs (25 mm) with double-sided carbon tabs. The coverslips were then coated with gold using a Xenosput sputter coater (Dynavac, Australia). The larvae on the coverslips were imaged using a field-emission scanning electron microscope (XL30 Philips, Netherlands) at 2.0 kV using a spot size of two; 12 representative images were taken of each sample.

Structure (SMILES) | IC50 ([1]; 7 days) | structural damage of xL3s by SEM [2] | IC50 [1]
Oc1ccc(-c2cscc2-c2ccc(O)cc2Cl)c(Cl)c1 [MJ-17] | 13.7 µM | no structural damage | –
Cc1cc(O)ccc1-c1ccc(-c2ccc(O)cc2F)s1 [MJ-22] | 10.5 µM | no structural damage | –
C[C@](C#N)(COc1cc(C#N)ccc1C(F)(F)F)NC(=O)c1ccc(SC(F)(F)F)cc1 [Monepantel, reference compound] | 0.4 µM | – | –
CO/N=C1\C[C@]2(C[C@@H]3C[C@@H](C/C=C(\C)C[C@@H](C)/C=C/C=C4\CO[C@@H]5[C@H](O)C(C)=C[C@@H](C(=O)O3)[C@]45O)O2)O[C@H](/C(C)=C/C(C)C)[C@H]1C [Moxidectin, reference compound] | 12.3 µM | – | –
Oc1ccc(-c2ccc(-c3ccc(O)cc3Cl)[se]2)c(Cl)c1 [WZY-2] | – | no structural damage | 12.2 µM
